According to patent US4350700A, “Pharmaceutical composition containing 1,3,5-substituted biuret compound” (Taiho Pharmaceutical Company, Limited, priority 1979, dated 1982):
Read-outs that look alike come from different tables or passages of the source.

Columns and labels:
ddy strain of male mice = experiment: Acute toxicity (oral, general symptom and death observed for 7 days); assay type: in vivo; conditions: for Acute toxicity, death number of mice/number of mice tested: 7 days
Method: (§1) Next, several tests for determining the pharmacological properties, in that acute toxicity, anti-pyretic activity, analgesic activity and anti-inflammatory activity of the present 1,3,5-substituted biuret compounds of the formula (1) were conducted and the test results are shown in Table (2). In the tests, each compounds to be tested was used as a suspension in 0.25% carboxymethylcellulose solution. Methods for testing are explained as follows:
The ddy strain of male mice (body weight, 20-25 g) were used as test animals. The mice were fasted overnight and the compound to be tested was administered orally. […] The lethal dose (mg/kg, body weight) of the test compound was determined in connection with the death number of mice/the number of mice tested. In Table 2, the values indicated with Δ marks are 50% lethal dose, LD50 (mg/kg, body weight).

[1] = test system: 10% dry-yeast suspension-induced fever of rats; experiment: Anti-pyretic activity (dry-yeast induced fever, febril index); assay type: in vivo, rats (Wistar strain, male); conditions: oral, febril index up to 4 hours after administration, dose not stated
Method: as §1
According to the method reported by Tanabe [Folia Pharmacologia Japonica, Vol. 73, pp. 803 (1977)], the Wistar strain of male rats (150-180 g body weight) were used as test animals. The rats were fasted overnight, and 1 ml/100 g (body weight) of 10% dry-yeast suspension were subcutaneously injected on the back of the rats. Five hours afte the injection, the test compound was administered orally, then the body temperature of the rat was measured time sequences. Anti-pyretic activity of the test compound was determined as the FI (febril index) by integrating pyrogenetic curve up to 4 hours after the administration of the test compound with time, and indicated as inhibitory ratio (%) shown by the following formula, [formula]

[2] = test system: pain reaction of the mouse caused by a clamp; experiment: Analgesic activity, Haffner method; assay type: in vivo, mice (ddy strain, male); conditions: mice
Method: as §1
According to the modified method reported by Fujimura et al., [Bulletin of the Institute for Chemical Research, Kyoto University, No. 25, pp. 36 (1951)], the ddy strain of male mice (body weight, 20-25 g) were used as test animals. The mice were fasted overnight, 100 mg/kg body weight of the test compound was administered orally, then 45 minutes after the administration, the threshhold amount (1.5-2.5 mg/kg body weight) of morphine hydrochloride was injected subcutaneously. Then 1-hour pain reaction of the mouse caused by a clamp was observed. Analgesic activity of the test compound was calculated as the inhibitory ratio (%). In Table 2, the values in parentheses show the data obtained from the test by using the dosage other than 100 mg/kg body weight. Further, the values indicated with Δ marks show 50% effective dose, ED50 (mg/kg body weight).

[3] = test system: acetic acid-induced stretching symptom of mouse; experiment: Analgesic activity, acetic acid-induced stretching method; assay type: in vivo, mice (ddy strain, male); conditions: read-out: Analgesic activity, acetic acid-induced stretching method, inhibitory ratio
Method: as §1
(1) Acetic acid-induced stretching method
According to the method reported by Koster et.al., [Fed. Proc., Vol. 18, pp. 412 (1959)], the ddy strain of male mice (body weight, 20-25 g) were used as test animals. The mice were fasted overnight, 100 mg/kg body weight of the test compound was administered orally, then 1 hour after the administration, 0.2 ml of 0.7% acetic acid solution was injected intraperitoneally. The acetic acid-induced stretching symptom of mouse was observed. Analgesic activity of the test compound was calculated as the inhibitory ratio (%). In Table 2, the values in parentheses show the data obtained from the test by using the dosage other than 100 mg/kg body weight. Further, the values indicated with Δ marks show 50% effective dose, ED50 (mg/kg body weight).

[4] = test system: carrageenin-induced inflammation of the hindpaw of the rat; experiment: Anti-inflammatory activity, acute carrageenin-induced inflammatory test; assay type: in vivo, rats (Wistar strain, male)
Method: as §1
4. Anti-inflammatory Activity
According to the method of acute carrageenin-induced inflammatory test [Folia Pharmacologia Japonica, Vol. 56, pp. 575 (1960)], the Wistar strain of male rats (body weight, 150-180 g) were used as test animals. The rats were fasted overnight, 100 mg/kg body weight of the test compound was administered orally, then 1 hour after the administration, 0.1 ml of 1% carrageenin solution, as the inflammation inducing agent, was injected subcutaneously to the hindpaw of the rat and the volume of the hindpaw was measured at time sequences. Anti-inflammatory activity of the test compound was calculated as inflammation inhibitory ratio (%) at 3 hours after the injection of inflammation inducing agent.

[5] = Rattus norvegicus, 100 mg/kg oral, rats, 3 hours after carrageenin, read-out: Anti-inflammatory activity, inflammation inhibitory ratio

Row | Molecule | Acute toxicity, death number of mice/number of mice tested (ddy strain of male mice; 1000 mg/kg oral) | Acute toxicity, death number of mice/number of mice tested (ddy strain of male mice; 2000 mg/kg oral) | Anti-pyretic activity, inhibitory ratio [1] | Analgesic activity, Haffner method, inhibitory ratio ([2]; 100 mg/kg oral) | inhibition in vivo at 100 mg/kg ([3]; po) | also measured
1 | CNC(=O)N(C)C(=O)Nc1ccccc1C(F)(F)F [compound 7, 1,3-Dimethyl-5-(2-trifluoromethylphenyl)biuret] | 0/4 | 3/4 | 121% | 12.5% | 62.5% | 
2 | CCNC(=O)N(C)C(=O)Nc1ccc(C)cc1 [compound 38, 1-Ethyl-3-methyl-5-(4-methylphenyl)biuret] | 0/4 | 3/4 | 80% | 25% |  | inhibition in vivo at 100 mg/kg ([3]; 100 mg/kg oral, mice): 87.5%
3 | CCNC(=O)N(C)C(=O)Nc1ccc(N(C)C)cc1 [compound 33, 1-Ethyl-3-methyl-5-(4-dimethylaminophenyl)biuret] | 0/4 | 4/4 | 87% | 25% | 62.5% | inhibition in vivo at 100 mg/kg ([4]; Rattus norvegicus, po, 3 h, read-out: Anti-inflammatory activity, inflammation inhibitory ratio): 30%
4 | CCNC(=O)N(C)C(=O)Nc1ccc(F)cc1 [compound 32, 1-Ethyl-3-methyl-5-(4-fluorophenyl)biuret] | 2/4 | 4/4 | 63% | 37.5% |  | inhibition in vivo at 100 mg/kg ([3]; 100 mg/kg oral, mice): 100%
5 | CCCCCNC(=O)N(C)C(=O)Nc1ccccc1 [compound 52, 1-n-Pentyl-3-methyl-5-phenylbiuret] |  | 0/4 | 38% | 37.5% | 62.5% | 
6 | CCNC(=O)N(C)C(=O)Nc1ccc(C)c(C)c1 [compound 39, 1-Ethyl-3-methyl-5-(3,4-dimethylphenyl)biuret] |  | 0/4 | 8% | 37.5% | 50% | 
7 | 1,3-Dimethyl-5-(4-methyl-2-pyridyl)biuret [compound 18] |  |  | 60% | 25% |  | Acute toxicity, 50% lethal dose LD50 (ddy strain of male mice; oral, 7 days observation (Δ values)): 1500 mg/kg; Anti-inflammatory activity, inflammation inhibitory ratio ([4]; 100 mg/kg oral, rats, 3 hours after carrageenin): 20%
8 | CNC(=O)N(C)C(=O)Nc1ccc(CC(=O)O)cc1 [compound 11, 1,3-Dimethyl-5-(4-carboxymethylphenyl)biuret] |  | 0/4 | 7% | 37.5% | 25% | 
9 | CN(C)CCNC(=O)N(C)C(=O)Nc1ccccc1 [compound 55, 1-(2-Dimethylaminoethyl)-3-methyl-5-phenylbiuret] | 3/4 |  |  | 12.5% | 12.5% | Acute toxicity, death number of mice/number of mice tested (ddy strain of male mice; 500 mg/kg oral): 2/4; inhibition in vivo at 100 mg/kg [4, 5]: 22%
10 | CCNC(=O)NC(=O)Nc1ccccc1Cl [compound 24, 1-Ethyl-5-(2-chlorophenyl)biuret] |  | 0/4 |  |  |  | inhibition in vivo at 200 mg/kg ([4]; Rattus norvegicus, 200 mg/kg oral, rats, 3 hours after carrageenin, read-out: Anti-inflammatory activity, inflammation inhibitory ratio): 77%; Analgesic activity, Haffner method, inhibitory ratio ([2]; 200 mg/kg oral): 37.5%; inhibition in vivo at 200 mg/kg ([3]; 200 mg/kg oral, mice): 25%
11 | CCNC(=O)NC(=O)Nc1ccccc1 [Compound No. 23, 1-ethyl-5-phenylbiuret] |  | 0/4 |  |  | 62.5% | inhibition in vivo at 100 mg/kg [4, 5]: 49%; Analgesic activity, Haffner method, inhibitory ratio ([2]; 200 mg/kg oral): 60%
12 | CN(C(=O)NCCC#N)C(=O)Nc1ccccc1 [compound 54, 1-(2-Cyanoethyl)-3-methyl-5-phenylbiuret] | 0/4 | 3/4 |  | 12.5% | 50% | inhibition in vivo at 100 mg/kg [4, 5]: 39%
